For this assay, the target named is Complement factor D (Homo sapiens, UniProt P00746). The experiment in a line: Human Factor D Assay: Human Factor D (purified from human serum, Complement Technology, Inc.) at 80 nM final concentration is incubated with test compound at various concentrations for 5 minutes at room temperature in 50 mM Tris, 1M NaCl, pH 7.5. A synthetic substrate Z-L-Lys-SBzl and DTNB (Ellman's reagent) are added to final concentrations of 100 μM each. Absorbance at 405 nm (A405) is recorded at 30 second intervals for 30 minutes using a microplate spectrophotometer. IC50values are calculated by nonlinear regression of complement Factor D reaction rates as a function of test compound concentration.
Complement factor D, sequence (P00746 whole entry): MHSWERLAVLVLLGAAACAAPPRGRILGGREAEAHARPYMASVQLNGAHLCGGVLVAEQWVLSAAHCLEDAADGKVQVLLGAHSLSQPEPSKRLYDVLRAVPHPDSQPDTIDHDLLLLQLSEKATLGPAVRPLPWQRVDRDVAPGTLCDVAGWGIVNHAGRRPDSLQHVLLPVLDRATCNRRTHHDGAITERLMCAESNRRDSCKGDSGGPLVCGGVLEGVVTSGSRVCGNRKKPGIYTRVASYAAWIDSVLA

The term IC50 denotes the concentration needed to halve the response being measured.

In the case of `Cc1cccc(CC(O)[C@H]2C[C@@H](F)CN2C(=O)Cn2cc(C(N)=O)c3cc(C(=O)NS(=O)(=O)C4CC4)ccc32)n1` (some centres not stated), the IC50 was more than 10 µM.
In the case of `Cc1cccc(CC(O)[C@@H]2C[C@@H](F)CN2C(=O)Cn2cc(C(N)=O)c3cc(C(=O)NS(=O)(=O)C4CC4)ccc32)n1` (some centres not stated), the concentration for half-maximal inhibition (IC50) was more than 10 µM.

Source of the values: ChEMBL document CHEMBL5729705, “Amide compounds for treatment of immune and inflammatory disorders” (2023).
